Measured values reported in US20030104945A1, “2,4-Diamino-1,3,5-triazines, their preparation, and their use as herbicides and plant growth regulators” (priority 2001, published 2003).

Assays:
Format in all cases: in vivo
[1] = test system: harmful plants which are typical of rice crops such as, for example, Cyperus monti, Echinochloa crus-galli and Sagittaria pygmaea; experiment: Activity against harmful plants in rice (paddy rice conditions); settings: poured into paddy water at various dosages; scored about three weeks after application vs untreated controls; further: test concentration or dose not given here
Protocol: Transplanted and seeded rice and typical grass weeds and broad-leaved weeds in rice crops are grown in the greenhouse under paddy rice conditions (depth of the paddy water: 2-3 cm) in sealed plastic pots until they have reached the three-leaf stage (Echinochloa crus-galli 1.5-leaf). They are then treated with the compounds according to the invention. To this end, the formulated active substances are suspended, dissolved or emulsified in water and the product is poured into the paddy water of the test plants at various dosages. After the treatment has been carried out thus, the test plants are placed in the greenhouse under optimal growth conditions and kept like this over the entire experimental period.
About three weeks after application, the evaluation is carried out by is of visually scoring the plant damage in comparison with untreated controls.

[2] = test system: harmful plants such as Sinapis alba, Echinochloa crus-galli, Lolium multiflorum, Stellaria media, Cyperus iria, Amaranthus retroflexus, Setaria viridus and …; experiment: Post-emergence herbicidal action (greenhouse pot test); settings: three-leaf stage, application rate of 1 kg and less of active substance per hectare, scored after approx. 3 to 4 weeks vs untreated controls
Protocol: Seeds or rhizome sections of monocotyledonous and dicotyledonous weeds are placed in sandy loam soil in plastic pots, covered with soil and grown in the greenhouse under good growth conditions. Three weeks after sowing, the experimental plants are treated at the three-leaf stage. The compounds according to the invention, which are formulated as wettable powders or as emulsion concentrates, are sprayed at various rates onto the green plant organs at an application rate of 600 to 800 l of water per ha (converted). After the experimental plants have remained in the greenhouse for approx. 3 to 4 weeks under optimal growth conditions, the effect of the compositions is scored visually in comparison with untreated controls. The substances according to the invention also have a good herbicidal action against a broad spectrum of economically important grass weeds and broad-leaved weeds when applied post-emergence.

[3] = test system: harmful plants such as Stellaria media, Lolium multiflorum, Amaranthus retroflexus, Sinapis alba, Avena sativa and Setaria viridis; experiment: Pre-emergence herbicidal action (greenhouse pot test); settings: application rate of 1 kg or less active substance per hectare, scored after 3 to 4 weeks vs untreated controls
Text: Seeds and rhizome sections of monocotyledonous and dicotyledonous harmful plants are placed in sandy loam in plastic pots and covered with soil. The compounds according to the invention which are formulated in the form of wettable powders or emulsion concentrates at various rates, are then applied to the surface of the covering soil as aqueous suspension or emulsion at an application rate of 600 to 800 l of water per ha (converted).
After the treatment, the pots are placed in the greenhouse and kept under good growth conditions for the weeds. Visual scoring of the plant damage or the adverse effect on emergence is done after the test plants have emerged after an experimental period of 3 to 4 weeks in comparison with untreated controls.

CCC(F)(CC)c1nc(N)nc(NC(CC2CC2)[C@@H]2C[C@H]2c2ccccc2)n1 (relative stereo) [Example 5-3]
very good herbicidal activity: herbicidal activity, visual scoring of plant damage [1] | herbicidal activity, visual scoring [2] | herbicidal activity, visual scoring of plant damage or adverse effect on emergence [3]

CCC(F)c1nc(NC=O)nc(NC(CC2CC2)[C@@H]2C[C@H]2c2ccccc2)n1 (relative stereo) [Example 5-4]
very good herbicidal activity: herbicidal activity, visual scoring of plant damage [1] | herbicidal activity, visual scoring [2] | herbicidal activity, visual scoring of plant damage or adverse effect on emergence [3]
